Source: US9375406B2, “Substituted pyrimidines for mobilizing cells expressing a type 4 CXC chemokine receptor” (TaiGen Biotechnology Co., Ltd., priority 2014, dated 2016)

System: T acute lymphoblastic leukemia (T-ALL) cells
Method: Mononuclear human leukemia cells were prepared using Ficoll gradient centrifugation and cryopreserved in liquid nitrogen. The frozen cells were thawed quickly and washed with PBS to remove the cryopreservation reagent. NOD/SCID mice (Institute of Cellular and Organismic Biology, Academia Sinica) were preconditioned with 200 centigray of total body irradiation at 6-8 weeks of age. The leukemia cells were then transplanted to the preconditioned NOD/SCID mice via tail vein. The resulting leukemia blast cells, i.e., T acute lymphoblastic leukemia (T-ALL) cells and acute myelogenous leukemia (AML) cells, were recovered from spleen and used in experiments as described below.
Mice were monitored for leukemia cell engraftment and dissemination by the appearance of human CD45^+ cells in mouse peripheral blood, which were sampled weekly after the 3rd week of cell transplantation. Peripheral blood samples were taken from the tail vein and red blood cells were lysed in ammonium chloride and resuspensed in Phosphate buffered saline (PBS) plus 2% Fetal Bovine Serum (FBS) before cell staining. […] After immunostaining, cells were washed, suspended in PBS plus 2% FBS, and analyzed using FACS Calibur (BD Biosciences). […]

CC[C@]1(O)C[C@H]2CN(CCc3c([nH]c4ccccc34)[C@@](C(=O)OC)(c3cc4c(cc3OC)N(C=O)[C@H]3[C@@](O)(C(=O)OC)[C@H](OC(C)=O)[C@]5(CC)C=CCN6CC[C@]43[C@@H]65)C2)C1 [vincristine]
average survival time (vincristine (0.5 mg/kg ip) alone, days 14, 21, 28): 73.6 ± 7.1 days
time until which CD45+ cells in the peripheral blood were not detected (vincristine (0.5 mg/kg) alone): 8 weeks
